Results from patent publication US12287344B2, “Fret-based method to measure seeding activity of misfolded protein species in biological samples” (MAX-DELBRÜCK-CENTRUM FÜR MOLEKULARE MEDIZIN IN DER …, priority 2018, dated 2025).

Tests used:
Ex1Q48-CyPet/-YPet = test: FRASE assay: effect of added preformed fibrils/seeds on Ex1Q48-CyPet/-YPet polymerization; assay type: biochemical, human; conditions: non-polyQ fibrillar aggregates produced in vitro; sensor 1:1 mixture, total conc. 1.2 μM
Protocol: (B) Effects of small, preformed Ex1Q48 seeds (1250 kDa) on Ex1Q48-CyPet and -YPet (1:1 mixture, total conc. 1.2 μM) co-aggregation. Data are mean±SEM (n=5).
(D) Effects of non-polyQ fibrils on Ex1Q48-CyPet and -YPet (1:1 mixture, total conc. 1.2 μM) co-aggregation. Data are mean±SD of triplicates.
Spontaneous Ex1Q48 aggregation was initiated by addition of 14 U PreScission protease (GE Healthcare) per nmol purified GST-Ex1Q48 fusion protein (2 μM). The aggregation reaction was performed in 50 mM Tris-HCl pH 7.4, 150 mM NaCl, 1 mM EDTA and 1 mM DTT at 25° C. and constant agitation (450 rpm) for 24 h. […] K2Q48P6 protein for seeding experiments was prepared from GST-K2Q48P6 fusion protein using the same protocol. ΔN17Q48+6PRD protein for seeding experiments was prepared from GST-ΔN17Q48+6PRD fusion protein using the same protocol. ΔN17Q40+6PRD protein for seeding experiments was prepared from GST-ΔN17Q40+6PRD fusion protein using the same protocol. Synthetic human IAPP was aggregated as described previously (Gao et al., 2015). Lyophilized α-Syn was dissolved in PBS at 500 μM and centrifuged (4° C., 265.000×g) after a 5 min sonication step to remove aggregated material. The supernatant was incubated for 7 d at 37° C. under constant shaking in the presence of a single glass bead. Tau40 was aggregated for 6 d at 37° C. under constant shaking in 100 mM sodium acetate, pH 7.4, and 1 mM DTT in the presence of heparin. Synthetic human Δβ1-42 was dissolved in 100 mM NaOH and diluted to 200 μM in low salt buffer (10 mM K3PO4, pH 7.4, 10 mM NaCl). Aggregation was performed for 6 h at 37° C. under constant agitation.
(§1) Purified GST-Ex1Q48-CyPet and GST-Ex1Q48-YPet were diluted in aggregation buffer at an equimolar ratio to a final concentration of 1.2 μM (0.6 μM each) with 14 U PSP per nmol sensor proteins if not stated otherwise. […] For quantification of seeding-competent HTT species in tissue samples, the sensor-protein mixture was supplemented with up to 10% (v/v) tissue homogenate. Fluorescence signals were measured every 20 min following a 5 s pulse of vertical shaking with a Tecan M200 fluorescence plate reader at 25° C. for up to 48 h. CyPet donor fluorescence was measured at excitation (Ex): 435 nm/emission (Em): 475 nm; YPet acceptor fluorescence at Ex: 500 nm/Em: 530 nm; the FRET channel (DA) was recorded at Ex: 435 nm/Em: 530 nm. Raw signals were processed by subtracting the background fluorescence of unlabeled Ex1Q48 in all channels. […] In brief, the FRET efficiency E (in %) was calculated as follows: E=(DA-cDxDD-cAxAA)/AA with DD=donor channel signal and AA=acceptor channel signal.
Seeding effects (Δt50 [h]) were quantified by subtracting the t50 values (time at half-maximal FRET efficiency) of the respective sample from the negative control. […]

HTTex1Q48 = HTTex1Q48 (Homo sapiens, UniProt P42858, INS38QQQQQQQQQQQQQQQQQQQQQQQQQQQ/P65L/V80A); conditions: previously shown (Wagner et al., 2018); cited from earlier work
sensor proteins = test: Sensor protein aggregation in the presence of compound but in the absence of HTTex1Q48 seeds; assay type: biochemical, human; conditions: compound present, no HTTex1Q48 seeds; residual concentration
Protocol: Purified GST-Ex1Q48-CyPet and GST-Ex1Q48-YPet were diluted in aggregation buffer at an equimolar ratio to a final concentration of 1.2 μM (0.6 μM each) with 14 U PSP per nmol sensor proteins if not stated otherwise. The solution was then mixed with preformed aggregates of Ex1Q48 (seeds) at varying concentrations with or without prior sonication and transferred to a black 384-well plate (with a final reaction volume of 30 μl per well and a sensor protein concentration of 1.2 μM). For quantification of seeding-competent HTT species in tissue samples, the sensor-protein mixture was supplemented with up to 10% (v/v) tissue homogenate. Fluorescence signals were measured every 20 min following a 5 s pulse of vertical shaking with a Tecan M200 fluorescence plate reader at 25° C. for up to 48 h. CyPet donor fluorescence was measured at excitation (Ex): 435 nm/emission (Em): 475 nm; YPet acceptor fluorescence at Ex: 500 nm/Em: 530 nm; the FRET channel (DA) was recorded at Ex: 435 nm/Em: 530 nm. Raw signals were processed by subtracting the background fluorescence of unlabeled Ex1Q48 in all channels. […] In brief, the FRET efficiency E (in %) was calculated as follows: E=(DA-cDxDD-cAxAA)/AA with DD=donor channel signal and AA=acceptor channel signal. […]

HTTex1Q48 seeds = target: T1, HTTex1Q48 seeds (Homo sapiens, UniProt P42858, INS38QQQQQQQQQQQQQQQQQQQQQQQQQQQ/P65L/V80A); test: FRASE assay of HTTex1Q48 seeds pre-incubated with compound; assay type: biochemical; conditions: preformed, sonicated HTTex1Q48 aggregates incubated with compound in 200-fold molar excess at 25° C. for 20 hours; compared to seeds incubated with DMSO
T1 construct: GST (N, cleaved yes); made in house; host or cells: E. coli BL21-CodonPlus-RP
Protocol: Httex1Q48 seeds were pre-incubated with 04 in 200-fold molar excess at 25° C. for 20 h and subsequently analyzed for their seeding activity using FRASE assays. (A) Aggregation profiles of sensor proteins in the presence or absence of O4 treated seeds and respective controls. Data are mean±SD of technical triplicates.
as §1, with “signal. […]” for “signal.”

Chain of HTTex1Q48 (P42858 with tags, fused parts or gaps with the stated changes): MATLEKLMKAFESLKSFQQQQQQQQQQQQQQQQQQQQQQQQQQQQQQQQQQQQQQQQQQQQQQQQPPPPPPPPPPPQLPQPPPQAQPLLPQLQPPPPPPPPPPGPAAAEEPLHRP
T1 sequence (P42858 with tags, fused parts or gaps with the stated changes): as above

Row | Compound | influence on Ex1Q48-CyPet/-YPet polymerization (Ex1Q48-CyPet/-YPet) | HTTex1Q48 seeding activity (HSA, Δt50) after pre-incubation of seeds (HTTex1Q48 seeds) | interference with the aggregation of HTTex1Q48 (HTTex1Q48) | effect on sensor protein aggregation (sensor proteins)
1 | amyloid-β: synthetic human Aβ1-42 aggregated in vitro | did not significantly influence |  |  | 
2 | tau: recombinant Tau40 protein aggregated in the presence of heparin | did not significantly influence |  |  | 
3 | IAPP: synthetic human islet amyloid polypeptide aggregated in vitro (KCNTATCATQRLANFLVHSSNNFGAILSSTNVGSNTY) | did not significantly influence |  |  | 

Continued, in another order:

Row | influence on Ex1Q48-CyPet/-YPet polymerization (Ex1Q48-CyPet/-YPet) | HTTex1Q48 seeding activity (HSA, Δt50) after pre-incubation of seeds (HTTex1Q48 seeds) | Compound | interference with the aggregation of HTTex1Q48 (HTTex1Q48) | effect on sensor protein aggregation (sensor proteins)
4 | did not significantly influence |  | α-synuclein |  | 
5 |  | strongly reduces | O=c1cc2oc3cc(O)c(-c4ccc(O)cc4O)cc3nc-2cc1-c1ccc(O)cc1O [O4] | interfere with the aggregation | no significant effect
